Laboratory results taken from patent US5652222A, “Selective inhibition of leukemic cell proliferation by bcr-abl antisense oligonucleotides” (Temple University-of The Commonwealth System of Higher …, priority 1993, dated 1997).

Key:
[1] = system: CML blast crisis cells (L-6 type junction); assay: CFU-L colony formation of CML blast crisis cells (Example 3); type: cell-based, human
Text: (§1) Normal bone marrow mononuclear cells (MNC) were obtained by aspiration from consenting volunteers and enriched for hematopoietic progenitors as previously reported by numerous investigators (Zamecnick et al., Proc. Natl. Acad. Sci. U.S.A. 83, 4143-4147 (1986); Caracciolo et al., J. Clin. Invest. 85, 55-61 (1990)). In brief, marrow cells were subjected to Ficoll-Hypaque density gradient sedimentation and then depleted of adherent monocyte-macrophage and T-lymphocytes by adherence to plastic Petri dishes and rosetting with neuraminidase-treated sheep red blood cells, respectively. Philadelphia chromosome-positive blast cells were isolated by Ficoll-Hypaque density gradient sedimentation from a CML patient in blast crisis (L-6 type junction). […] The residual non-blast cells had the morphological appearance of small lymphocytes. 25,000 MNC and 25,000 CML blast cells were combined and incubated with bcr-abl breakpoint-Specific antisense oligomer (SEQ ID NO:3) (40 μg/ml at h 0; 20 μg/ml 18 hours later) or with a 4 nucleotide mismatch bcr-abl antisense oligomer (SEQ ID NO:2) (40 μg/ml at 0 h; 20 μg/ml 18 hours later) or left untreated. Four hours after the second addition of oligonucleotides to the cultures, cells were seeded into duplicate methylcellulose dishes containing IL-3 (20 U/ml) and GM-CSF (5 ng/ml) and allowed to grow for an additional 12 days. At the end of the incubation period colonies were counted.
The data is shown in Table 3, below, wherein values represent mean ± standard deviation of duplicate control cultures (no oligonucleotide added) and duplicate experimental cultures from two separate experiments. Colony forming unit-granulocyte macrophage (CFU-GM)-derived colonies consisted of 50 or more cell aggregates, while CFU-GM-derived clusters were defined as aggregates of between 4 and 40 cells. These are normal hematopoietic colonies derived from progenitors with the capability to differentiate along the granulocytic and macrophage lineages. […]

[2] = system: 1:1 mix of normal MNC and CML blast crisis cells; assay: Morphology (Giemsa staining) of cells from residual colonies; type: cell-based, human
Text: as §1, with “Four hours after the second addition of oligonucleotides to the cultures, cells were seeded into duplicate methylcellulose dishes containing IL-3 (20 U/ml) and GM-CSF (5 ng/ml) and allowed to grow for an additional 12 days.” left out, “counted. […]” for “counted.”

BV173 cells (b2/a2) = assay: Proliferation of BV173 cells expressing b2a2 junction; type: cell-based, human; conditions: in comparison to untreated control cells (FIG. 7)
Experimental: Amplification of the bcr-abl junction with a 5' primer corresponding to bcr exon 2, and a 3' primer corresponding to abl exon 2, followed by hybridization to an 18-mer specific for the b2/a2 or the b3/a2 junction identified the b2/a2 breakpoint in these cells (data not shown).
The sensitivity of the BV173 cells to b2/a2 antisense phosphorothioate oligodeoxynucleotides was assessed. Phosphorothioate oligodeoxynucleotides were prepared on either an Applied Biosystems Model 380B or 390Z Automated Synthesis instrument using conventional phosphoramidite monomers and manufacturer-recommended procedures, which included substitution of tetraethylthiuran (or an equivalent sulfur-donor reagent) for iodine-water-pyridine, […] reversed-phase preparative chromatography, detritylation, and obtaining the final product in the form of its sodium salt, all according to previously published methodology: Zon and Stec, in Oligonucleotides and Analogues A Practical Approach, F. Eckstein, Ed. (Oxford Univerisity Press, Oxford 1991), pp. 87-108; Zon and Geiser, Anti-Cancer Drug Design 6, 539 (1991); Vu and Hirschenbein, Tetrahedron Lett. 32, 3005-3008 (1991).
BV173 cells were cultured in the presence of phosphorothioate b2/a2 antisense 26-mer CGCTGAAGGG CTTCTTCCT ATTGAT (SEQ ID NO:29), the phosphorothioate sense sequence ATCAATAAGGAAGCCCTTCAGCG (SEQUENCE ID NO:34), or the b3/a2 (SEQ ID NO:31) or b1/a2 (SEQ ID N0:33) phosphorothioate antisense 26-mer. […] The sense oligomer SEQ ID NO:34 gave no inhibition (FIG. 7, -.largecircle.-) in comparison to untreated control cells (FIG. 7, -.quadrature.-).

[3] = system: BV173 cells (cALL antigen (CALLA)-positive cells); assay: Immunofluorescence / flow cytometry of CALLA-positive cells in tissues of leukemic SCID mice; type: in vivo, SCID mice (human leukemic cells)
Experimental: A first assay comprised an immunofluorescence analysis of cALL antigen (CALLA)-positive cells. All BV173 cells but not normal murine hematopoietic cells express this antigen (assay sensitivity=10^-2). Single cell suspensions were prepared for flow cytometry analysis from peripheral blood, spleen and bone marrow cells of the leukemic SCID mice by centrifugation on a lymphocyte-M gradient (Cedarlane Labs, Ltd., Ontario, Canada). Cells (1×10^5) were stained with the FITC-conjugated mouse anti-CALLA monoclonal antibody (Becton-Dickinson Immunocytometry Systems, San Jose, Calif.) to human CD10 antigen. After staining, cells were washed and analyzed by flow cytometry using the Epics Profile Analyzer (Coulter Electronic).
To determine whether synthetic phosphorothioate oligodeoxynucleotides targeted against the bcr-abl junction of […] cells would modify the disease process in SCID mice. SCID mice were injected with 10^6 BV173 cells. The mice then received 1 mg of sense (ATCAATAAGG AAGCCCTTCAGCG, SEQ ID NO:34) or antisense ([…] ATTGAT, SEQ ID NO:29) b2/a2 bcr-abl phosphorothioate oligodeoxynucleotides (pyrogen leven <1 Eu/mg; 0.2 ml in Iscove modified Dulbecco medium in 5-10 seconds) intravenously for each of 9 consecutive days, beginning either 7 or 21 days after introducing 10^6 BV173 cells. Control mice received the diluent (iscove's modified Dulbecco medium) only. These time points approximate distinct disease stages in humans.

[4] = 1 mg/day i.v. x9 from day +7, 26 days after last treatment (6 weeks)
[5] = from day +21, 1 mg/day x9, 26 days after treatment (8 weeks)

| Substance | Colonies or Clusters, CFU-L (colonies formed from CML blast crisis cells) ([1]; Table 3, 40 μg/ml at 0 h, 20 μg/ml 18 h later, 12 days, mean ± SD, control 806 ± 70) | number of colonies arising from the CML blast crisis cells (CFU-L) ([1]; after twelve days in culture) | morphology of cells isolated from residual colonies [2] | inhibition of proliferation of BV173 cells (BV173 cells (b2/a2)) | CALLA+ cells, bone marrow ([3]; 1 mg/day i.v. x9 from day +7, 12 days after last treatment (4 weeks)) | CALLA+ cells, bone marrow [3, 4] [%] | CALLA+ cells, peripheral blood [3, 4] [%] | CALLA+ cells, spleen [3, 4] [%] | CALLA+ cells, peripheral blood ([3]; from day +21, 1 mg/day x9, 12 days after last treatment (6 weeks), control 1.0±0.1) | CALLA+ cells, spleen ([3]; from day +21, 1 mg/day x9, 12 days after last treatment (6 weeks), control 1.9±0.1) [%] | CALLA+ cells, bone marrow ([3]; from day +21, 1 mg/day x9, 12 days after last treatment (6 weeks), control 17.7±1.8) [%] | CALLA+ cells, bone marrow [3, 5] [%] | CALLA+ cells, peripheral blood [3, 5] [%] | CALLA+ cells, spleen [3, 5] [%] |
| --- | --- | --- | --- | --- | --- | --- | --- | --- | --- | --- | --- | --- | --- | --- |
| SEQ ID NO:3: synthetic 18-mer GAAGGGCTTC TTCCTTAT specific for the 18-nucleotide target sequence of the L-6 bcr-abl junction (antisense GAAGGGCTTCTTCCTTAT; chemistry not given here) | 180 ± 14 colonies or clusters | much lower than that arising in the presence of the mismatched bcr-abl oligomer | largely consisted of differentiating elements |  |  |  |  |  |  |  |  |  |  |  |
| SEQ ID NO:34: phosphorothioate sense sequence ATCAATAAGGAAGCCCTTCAGCG (23-mer b2a2 sense) (sense ATCAATAAGGAAGCCCTTCAGCG; all phosphorothioate, sugars by position and methylation of C not given here) |  |  |  | no inhibition | detected in bone marrow of control and sense-treated animal | 16.8±1.8 | 1.9±0.2 | 4.1±0.2 | 0.9±0.1 | 1.9±0.8 | 10.0±0.5 | 23.9±5.0 | 2.0±0.3 | 9.9±1.8 |
